Data from patent publication US20090074926A1, “Preservation of acidic beverages” (PURAC BIOCHEM B.V., priority 2007, published 2009).
Like-named read-outs stand apart in the source and are kept apart here.

Assays:
Assay type in all cases: cell-based
[1] = test system: Schizosaccharomyces pombe; experiment: Screening of combinations of two inhibitors, outgrowth in GPY-broth pH 3.5
Experimental: These combination tests were carried out in sterile 96-well microtiter plates. Sterile GPY-broth was prepared with increasing quantities of two different inhibitors. The concentrations of each inhibitor were presented in 8 equal concentration steps that ranged from 0 to 1-2 times the MIC value of a particular yeast for a particular inhibitor resulting in 64 different media. […] of each medium was transferred to a panel of a sterile 96-well microtiter plate. Completed well plates were stored at 4° C. until further use.
Plates were inoculated with 2 μL of two days old cultures and incubated for 96 hours at 25° C. Growth was quantified by measuring the optical density at 595 nm in a microplate reader and expressed as a percentage of the growth in the control, which contained no inhibitor. All the experiments were carried out in duplicate.

[2] = test system: a collection of yeasts; settings: pH 3.5
Experimental: Cultures were grown in GPY-broth that contained per liter demineralised-water: 40 g glucose, 5 g peptone and 5 g yeast extract, the pH of the medium to 3.5 with 2 N HCl. Cultures were grown in screw-capped tubes for at least 48 hours at 25° C. Pichia membranifaciens MUCL 27794, CBS 8427 and CBS 5567, Rhodotorula glutinis CBS 2367, Rhodotorula mucilaginosa CBS 8054 and CBS 2401 and Zygosaccharomyces bailii MUCL 27812 were cultured in shake flasks
The inhibition tests were carried out in sterile 96-well microtiter plates. Increasing amounts (0 to 100 μL in 10 steps of 10 μL) of a sterile stock solution of each compound were transferred to sterile microtiter plates. Next 100 μL of filter sterilized double strength GPY-broth was added and the volume of each well was adjusted to 200 μL with sterile demineralized-water. Plates were inoculated with 2 μL of two days old cultures and incubated for 96 hours at 25° C. Growth was quantified by measuring the optical density at 595 nm in a microplate reader. All the experiments were carried out in duplicate.

[3] = test system: Saccharomyces cerevisiae; experiment: Screening of combinations of three ingredients, outgrowth in GPY-broth pH 3.5
Experimental: These combination tests were also carried out in sterile 96-well microtiter plates. Sterile GPY-broth was prepared with increasing quantities of inhibitors. For the first dimension the concentrations of the first inhibitor was presented in 8 equal concentration steps. For the second dimension a fixed ratio of two other inhibitors was chosen. This mixture was presented in 8 equal concentration steps resulting in 64 different media. […] of each medium was transferred to a panel of a sterile 96-well microtiter plate. Completed well plates were stored at 4° C. until further use. Plates were inoculated with 2 μL of two days old cultures and incubated for 96 hours at 25° C. Growth was quantified by measuring the optical density at 595 nm in a microplate reader and expressed as a percentage of the growth in the control, which contained no inhibitor. All the experiments were carried out in duplicate.

`C/C=C/C=C/C(=O)[O-].[K+]` [Potassium sorbate, potassium sorbate] was tested, and the “Outgrowth (% of outgrowth at zero concentration inhibitor)” value ([1]; ε-polylysine 0, potassium sorbate 0.007 (% w/v)) was 81%, the “Outgrowth (% of outgrowth at zero concentration inhibitor)” value ([1]; ε-polylysine 0, potassium sorbate 0.014 (% w/v)) was 69% and the “Outgrowth (% of outgrowth at zero concentration inhibitor)” value ([1]; ε-polylysine 0, potassium sorbate 0.021 (% w/v)) was 56%. The “Outgrowth (% of outgrowth at zero concentration inhibitor)” value ([1]; ε-polylysine 0, potassium sorbate 0.028 (% w/v)) was 44%, the “Outgrowth (% of outgrowth at zero concentration inhibitor)” value ([1]; ε-polylysine 0, potassium sorbate 0.035 (% w/v)) was 30% and the “Outgrowth (% of outgrowth at zero concentration inhibitor)” value ([1]; ε-polylysine 0, potassium sorbate 0.042 (% w/v)) was 20%. For the same molecule, the “Outgrowth (% of outgrowth at zero concentration inhibitor)” value ([1]; ε-polylysine 0, potassium sorbate 0.049 (% w/v)) was 7%.
`O=C(O)C=Cc1ccccc1` [Cinnamic acid, cinnamic acid] was tested, and the “Comparison of inhibitory potency (in words)” value ([2]; MIC values of a number of yeasts) was “more effective than sorbic acid”, the “MICavg (Average Minimal Inhibitory Concentration)” value ([2]; collection of yeasts) was 0.009 ± 0.007 % w/v and the “MICmax (Maximum MIC)” value ([2]; collection of yeasts) was 0.03 % w/v. For the same molecule, the MICmax/MICavg ([2]; collection of yeasts) was 3.0, the “Outgrowth (% of outgrowth at zero concentration inhibitor)” value ([3]; MCE 8060-ε-polylysine mixture (ratio 18.9) 0, cinnamic acid 0.002 (% w/v)) was 76% and the “Outgrowth (% of outgrowth at zero concentration inhibitor)” value ([3]; MCE 8060-ε-polylysine mixture (ratio 18.9) 0, cinnamic acid 0.004 (% w/v)) was 44%. For the same molecule, the “Outgrowth (% of outgrowth at zero concentration inhibitor)” value ([3]; MCE 8060-ε-polylysine mixture (ratio 18.9) 0, cinnamic acid 0.006 (% w/v)) was 1%, the “Outgrowth (% of outgrowth at zero concentration inhibitor)” value ([3]; MCE 8060-ε-polylysine mixture (ratio 18.9) 0, cinnamic acid 0.008 (% w/v)) was 0% and the “Outgrowth (% of outgrowth at zero concentration inhibitor)” value ([3]; MCE 8060-ε-polylysine mixture (ratio 18.9) 0, cinnamic acid 0.01 (% w/v)) was 2%. The “Outgrowth (% of outgrowth at zero concentration inhibitor)” value ([3]; MCE 8060-ε-polylysine mixture (ratio 18.9) 0, cinnamic acid 0.012 (% w/v)) was 1% and the “Outgrowth (% of outgrowth at zero concentration inhibitor)” value ([3]; MCE 8060-ε-polylysine mixture (ratio 18.9) 0, cinnamic acid 0.014 (% w/v)) was 0%.
With `C/C=C/C=C/C(=O)O` [Sorbic acid] the “MICavg (Average Minimal Inhibitory Concentration)” value [2] was 0.030 ± 0.020 % w/v, the “MICmax (Maximum MIC)” value [2] was 0.07 % w/v and the MICmax/MICavg [2] was 2.5.
